The record followed here is patent US20250282794A1 (CURADEV PHARMA LTD, priority 2022, published 2025).

The IC50 is the midpoint of a concentration-inhibition curve.

The target of this experiment is recombinant full length HPK-1 enzyme (Homo sapiens (Human), UniProt Q92918). Put plainly: HPK-1 biochemical enzyme assay (ADP-Glo kinase inhibition). As to conditions: recombinant full length HPK-1 6.8 nM, 10 μM ATP, 12.5 μM MBP, 30 mins at 25° C. The essentials: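 Recombinant full-length human HPK-1 (6.8 nM) incubated 30 min at 25° C. with 10 μM ATP and 12.5 μM swine MBP in 40 mM Tris pH 7.4, 20 mM MgCl2, 50 μM DTT, 0.1 mg/mL BSA. ADP measured by ADP-Glo; IC50 from 10 concentrations, normalized to no-enzyme and vehicle controls.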
recombinant full length HPK-1 enzyme, sequence (Q92918 whole entry, species assumed): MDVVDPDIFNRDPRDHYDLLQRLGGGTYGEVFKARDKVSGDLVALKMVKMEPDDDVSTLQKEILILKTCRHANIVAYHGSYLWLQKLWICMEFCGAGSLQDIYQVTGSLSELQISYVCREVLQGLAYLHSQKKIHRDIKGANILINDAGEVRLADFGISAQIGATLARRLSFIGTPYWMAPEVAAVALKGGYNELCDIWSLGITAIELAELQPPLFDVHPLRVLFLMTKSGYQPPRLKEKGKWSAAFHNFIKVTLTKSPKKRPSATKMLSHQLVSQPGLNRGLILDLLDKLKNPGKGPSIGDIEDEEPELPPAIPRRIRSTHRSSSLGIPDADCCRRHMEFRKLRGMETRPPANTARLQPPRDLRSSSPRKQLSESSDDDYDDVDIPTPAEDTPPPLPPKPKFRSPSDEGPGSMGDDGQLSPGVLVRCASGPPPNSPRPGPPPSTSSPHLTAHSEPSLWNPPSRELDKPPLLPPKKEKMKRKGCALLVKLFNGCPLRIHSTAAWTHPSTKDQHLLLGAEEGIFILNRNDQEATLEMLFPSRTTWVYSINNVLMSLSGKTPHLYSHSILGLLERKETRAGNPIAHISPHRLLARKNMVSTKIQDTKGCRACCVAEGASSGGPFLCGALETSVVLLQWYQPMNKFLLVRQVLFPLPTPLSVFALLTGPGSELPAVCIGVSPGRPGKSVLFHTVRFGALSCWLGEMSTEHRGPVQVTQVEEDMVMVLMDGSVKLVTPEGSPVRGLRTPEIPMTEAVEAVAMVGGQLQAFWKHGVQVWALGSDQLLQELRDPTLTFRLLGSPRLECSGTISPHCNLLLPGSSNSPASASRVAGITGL
Take `Cc1c(Nc2cc[nH]c(=O)c2C(=O)Nc2ccc(N3CCC(N)C3)cc2)cnc2c1NCCO2` (stereo not shown) [Example 395, N-(4-(3-aminopyrrolidin-1-yl)phenyl)-4-((8-methyl-2,3-dihydro-1H-pyrido[2,3-b][1,4]oxazin-7-yl)amino)-2-oxo-1,2-dihydropyridine-3-carboxamide]: the IC50 fell in the range of 10 to 100 nM. For `COc1ncc(C(C)(C)O)c2cc(NC(=O)c3c(Nc4cnc5c(c4C)NCCO5)cc[nH]c3=O)ccc12` [Example 396, N-(4-(2-Hydroxypropan-2-yl)-1-methoxyisoquinolin-6-yl)-4-((8-methyl-2,3-dihydro-1H-pyrido[2,3-b][1,4]oxazin-7-yl)amino)-2-oxo-1,2-dihydropyridine-3-carboxamide], the half-maximal inhibitory concentration (IC50) was 100 to 1000 nM. Take `Cc1c(Nc2cc[nH]c(=O)c2C(=O)Nc2ccc(N3CCCC3CO)cc2)cnc2c1NCCO2` (stereo not shown) [Example 397, N-(4-(2-(hydroxymethyl)pyrrolidin-1-yl)phenyl)-4-((8-methyl-2,3-dihydro-1H-pyrido[2,3-b][1,4]oxazin-7-yl)amino)-2-oxo-1,2-dihydropyridine-3-carboxamide]: the IC50 lay in the range of 10 to 100 nM. On to `Cc1c(Nc2cc[nH]c(=O)c2C(=O)Nc2ccc(N3CCC(O)C3)cc2)cnc2c1NCCO2` (stereo not shown) [Example 398, N-(4-(3-hydroxypyrrolidin-1-yl)phenyl)-4-((8-methyl-2,3-dihydro-1H-pyrido[2,3-b][1,4]oxazin-7-yl)amino)-2-oxo-1,2-dihydropyridine-3-carboxamide], for which the IC50 lay in the range of 10 to 100 nM.

For `CCCN1CCN(c2ccc(NC(=O)c3c(Nc4cnc5c(c4C)NCCO5)cc[nH]c3=O)cc2)CC1` [Example 399, 4-((8-methyl-2,3-dihydro-1H-pyrido[2,3-b][1,4]oxazin-7-yl)amino)-2-oxo-N-(4-(4-propylpiperazin-1-yl)phenyl)-1,2-dihydropyridine-3-carboxamide], the IC50 was not above 10 nM. Take `Cc1cc(NC(=O)c2c(Nc3cnc4c(c3C)NCCO4)cc[nH]c2=O)ccc1N1CCN(C2CC2)CC1` [Example 400, N-(4-(4-cyclopropylpiperazin-1-yl)-3-methylphenyl)-4-((8-methyl-2,3-dihydro-1H-pyrido[2,3-b][1,4]oxazin-7-yl)amino)-2-oxo-1,2-dihydropyridine-3-carboxamide]: the half-inhibitory concentration (IC50) is 10 to 100 nM.

`CCOc1cc(NC(=O)c2c(Nc3cnc4c(c3C)NCCO4)cc[nH]c2=O)ccc1N1CCN(C2CC2)CC1` [Example 401, N-(4-(4-cyclopropylpiperazin-1-yl)-3-ethoxyphenyl)-4-((8-methyl-2,3-dihydro-1H-pyrido[2,3-b][1,4]oxazin-7-yl)amino)-2-oxo-1,2-dihydropyridine-3-carboxamide]: the IC50 was in the range of 10 to 100 nM. Consider `CC(=O)N1CCN(c2ccc(NC(=O)c3c(Nc4cnc5c(c4C)NCCO5)cc[nH]c3=O)cc2)CC1` [Example 402, N-(4-(4-acetylpiperazin-1-yl)phenyl)-4-((8-methyl-2,3-dihydro-1H-pyrido[2,3-b][1,4]oxazin-7-yl)amino)-2-oxo-1,2-dihydropyridine-3-carboxamide], for which the IC50 fell in the range of 10 to 100 nM. `Cc1c(Nc2cc[nH]c(=O)c2C(=O)Nc2ccc(N3CCN(C(=O)CCO)CC3)cc2)cnc2c1NCCO2` [Example 403, N-(4-(4-(3-hydroxypropanoyl)piperazin-1-yl)phenyl)-4-((8-methyl-2,3-dihydro-1H-pyrido[2,3-b][1,4]oxazin-7-yl)amino)-2-oxo-1,2-dihydropyridine-3-carboxamide]: the IC50 is not above 10 nM. Turning to `Cc1c(Nc2cc[nH]c(=O)c2C(=O)Nc2ccc(N3CCN(C(C)C)CC3)cc2)cnc2c1NCC(C)O2` (stereo not shown) [Example 404, 4-((3,8-dimethyl-2,3-dihydro-1H-pyrido[2,3-b][1,4]oxazin-7-yl)amino)-N-(4-(4-isopropylpiperazin-1-yl)phenyl)-2-oxo-1,2-dihydropyridine-3-carboxamide], the IC50 is not above 10 nM.

Consider `Cc1c(Nc2cc[nH]c(=O)c2C(=O)Nc2ccc(N3CCN(C(C)C)CC3)cc2)cnc2c1NCC(C)O2` (stereo not shown) [Example 405, 4-((3,8-dimethyl-2,3-dihydro-1H-pyrido[2,3-b][1,4]oxazin-7-yl)amino)-N-(4-(4-isopropylpiperazin-1-yl)phenyl)-2-oxo-1,2-dihydropyridine-3-carboxamide], for which the IC50 is 10 to 100 nM. `COCCCN1CCN(c2ccc(NC(=O)c3c(Nc4cnc5c(c4C)NCC(C)O5)cc[nH]c3=O)cc2)CC1` (stereo not shown) [Example 406, 4-((3,8-dimethyl-2,3-dihydro-1H-pyrido[2,3-b][1,4]oxazin-7-yl)amino)-N-(4-(4-(3-methoxypropyl)piperazin-1-yl)phenyl)-2-oxo-1,2-dihydropyridine-3-carboxamide]: the half-inhibitory concentration (IC50) is 10 to 100 nM. With `Cc1c(Nc2cc[nH]c(=O)c2C(=O)Nc2ccc(N3CCN(c4ccn(C)n4)CC3)cc2)cnc2c1NCC(C)O2` (stereo not shown) [Example 407, 4-((3,8-dimethyl-2,3-dihydro-1H-pyrido[2,3-b][1,4]oxazin-7-yl)amino)-N-(4-(4-(1-methyl-1H-pyrazol-3-yl)piperazin-1-yl)phenyl)-2-oxo-1,2-dihydropyridine-3-carboxamide] the figure was 10 to 100 nM; with `Cc1c(Nc2cc[nH]c(=O)c2C(=O)Nc2ccc(N3CCN(C)CC3CO)cc2)cnc2c1NCCO2` (stereo not shown) [Example 408, N-(4-(2-(hydroxymethyl)-4-methylpiperazin-1-yl)phenyl)-4-((8-methyl-2,3-dihydro-1H-pyrido[2,3-b][1,4]oxazin-7-yl)amino)-2-oxo-1,2-dihydropyridine-3-carboxamide], 10 to 100 nM. With `Cc1c(Nc2cc[nH]c(=O)c2C(=O)Nc2cnn(CC(F)(F)F)c2)cnc2c1NCCO2` [Example 409, 4-((8-methyl-2,3-dihydro-1H-pyrido[2,3-b][1,4]oxazin-7-yl)amino)-2-oxo-N-(1-(2,2,2-trifluoroethyl)-1H-pyrazol-4-yl)-1,2-dihydropyridine-3-carboxamide] the figure was 10 to 100 nM; with `Cc1c(Nc2cc[nH]c(=O)c2C(=O)Nc2ccc(N3CCN(c4cnn(C)c4)CC3)cc2)cnc2c1NCCO2` [Example 410, N-(4-(4-(1-methyl-1H-pyrazol-4-yl)piperazin-1-yl)phenyl)-4-((8-methyl-2,3-dihydro-1H-pyrido[2,3-b][1,4]oxazin-7-yl)amino)-2-oxo-1,2-dihydropyridine-3-carboxamide], 10 to 100 nM. `Cc1c(Nc2cc[nH]c(=O)c2C(=O)Nc2ccc(N3CCC(C4CC4)CC3)cc2)cnc2c1NCCO2` [Example 411, N-(4-(4-cyclopropylpiperidin-1-yl)phenyl)-4-((8-methyl-2,3-dihydro-1H-pyrido[2,3-b][1,4]oxazin-7-yl)amino)-2-oxo-1,2-dihydropyridine-3-carboxamide]: the IC50 fell in the range of 10 to 100 nM. As for `Cc1c(Nc2nc[nH]c(=O)c2C(=O)Nc2ccc(N3CCN(C(C)C)CC3)cc2)cnc2c1NCCO2` [Example 412, N-(4-(4-isopropylpiperazin-1-yl)phenyl)-4-((8-methyl-2,3-dihydro-1H-pyrido[2,3-b][1,4]oxazin-7-yl)amino)-6-oxo-1,6-dihydropyrimidine-5-carboxamide], the IC50 lay in the range of 10 to 100 nM.

Take `COCCN1CCN(c2ccc(NC(=O)c3c(Nc4cnc5c(c4C)NCCO5)nc[nH]c3=O)cc2)CC1` [Example 413, N-(4-(4-(2-methoxyethyl)-piperazin-1-yl)phenyl)-4-((8-methyl-2,3-dihydro-1H-pyrido[2,3-b][1,4]oxazin-7-yl)amino)-6-oxo-1,6-dihydropyrimidine-5-carboxamide]: the IC50 is 10 to 100 nM.
